This is an account of results in BindingDB's records for doi:10.1021/jm00006a007 (Parke-Davis Pharmaceutical Research, 1995).

For orientation: IC50 means the concentration that inhibits the measured activity by half. Low readings indicate greater potency in that assay, high ones weaker potency in that assay. For orientation: Ki means the dissociation constant of the complex between target and ligand, obtained from inhibition or displacement.

The target of the test is T1, Dimer of Gag-Pol polyprotein [489-587] (Human immunodeficiency virus 1, UniProt P12497).
T1 construct: 489-587
Put plainly: Protease Inhibition Assay. The following applies: pH 4.7; 37 °C. The procedure: For determination of IC50 values, HIV-1 protease was added to assay buffer containing inhibitor and the substrate (H-His-Lys-Ala-Arg-Val-Leu- (p-NO2) Phe-Glu-Ala-norleucine-Ser-NH2). The Leu- (p-NO2) Phe bond of the substrate was cleaved by the enzyme, and the substrate and products were separated by reversed-phase HPLC. Absorbance was measured at 220 nm, peak areas were determined, and percentage conversion to product was calculated.
As to `O=c1oc(-c2ccccc2)cc(O)c1C(CC1CC1)SCc1ccccc1` (racemic) [3-[1-(benzylsulfanyl)-2-cyclopropylethyl]-4-hydroxy-6-phenyl-2H-pyran-2-one], the IC50 is 84 nM.

Turning to `O=c1oc(-c2ccccc2)cc(O)c1C(CC1CCCC1)SC1CCCCC1` (racemic) [3-[1-(cyclohexylsulfanyl)-2-cyclopentylethyl]-4-hydroxy-6-phenyl-2H-pyran-2-one], the IC50 worked out at 541 nM.

`O=c1oc(-c2ccccc2)cc(O)c1C(CC1CC1)SC1CCCCC1` (racemic) [3-[1-(cyclohexylsulfanyl)-2-cyclopropylethyl]-4-hydroxy-6-phenyl-2H-pyran-2-one] displayed an IC50 of 147 nM.

Compound `O=c1oc(-c2ccccc2)cc(O)c1C(CC1CC1)SC1CCCC1` (racemic) [3-[1-(cyclopentylsulfanyl)-2-cyclopropylethyl]-4-hydroxy-6-phenyl-2H-pyran-2-one] had an IC50 of 69 nM. This IC50 lies about 2.1-fold lower than the previous one.

As for `O=c1oc(-c2ccccc2)cc(O)c1C(SCc1ccccc1)c1ccccc1` (racemic) [3-[(benzylsulfanyl)(phenyl)methyl]-4-hydroxy-6-phenyl-2H-pyran-2-one], the IC50 amounted to 480 nM. This IC50 is about 7-fold higher than that of the compound before.

As to `O=c1oc(-c2ccccc2)cc(O)c1C(SC1CCCC1)C1CCCC1` (racemic) [3-[cyclopentyl(cyclopentylsulfanyl)methyl]-4-hydroxy-6-phenyl-2H-pyran-2-one], the IC50 turned out to be 225 nM.

Take `O=c1oc(-c2ccccc2)cc(O)c1C(Sc1ccc2ccccc2c1)c1ccccc1` (racemic) [4-hydroxy-3-[(naphthalen-2-ylsulfanyl)(phenyl)methyl]-6-phenyl-2H-pyran-2-one]: the IC50 was 2450 nM.

`O=c1oc(-c2ccccc2)cc(O)c1C(Sc1ccccc1)c1ccc2ccccc2c1` (racemic) [4-hydroxy-3-[naphthalen-2-yl(phenylsulfanyl)methyl]-6-phenyl-2H-pyran-2-one]: the IC50 was found to be 7820 nM.

`CC(C)CC(SC1CCCC1)c1c(O)cc(-c2ccccc2)oc1=O` (racemic) [(+/-)-3-[1-(Cyclopentylthio)-3-methylbutyl]-4-hydroxy-6-phenyl-2H-pyran-2-one] showed a Ki of 33 nM.

As to `O=c1oc(-c2ccccc2)cc(O)c1C(Sc1ccccc1)C1CCCCC1` (racemic) [(+/-)-3-[Cyclohexyl(phenylthio)methyl]-4-hydroxy-phenyl-2H-pyran-2-one], the IC50 stood at 2440 nM.

As to `O=c1oc(-c2ccccc2)cc(O)c1C(Sc1ccccc1)c1ccccc1` (racemic) [(+/-)-4-Hydroxy.6-phenyl-3-[phenyl(phenylthio)methyl]-2H-pyran-2-one], 780 nM corresponded to half-maximal inhibition (IC50).

The compound `O=c1oc(-c2ccccc2)cc(O)c1C(SC1CCCCC1)c1ccccc1` (stereo not drawn) [3-[(cyclohexylsulfanyl)(phenyl)methyl]-4-hydroxy-6-phenyl-2H-pyran-2-one] registered an IC50 of 480 nM.

In the case of `O=c1oc(-c2ccccc2)cc(O)c1CSc1ccccc1` [4-hydroxy-6-phenyl-3-[(phenylsulfanyl)methyl]-2H-pyran-2-one], the IC50 was determined as 84300 nM.
